These results are taken from patent US20260262643A1, “HERBICIDAL BENZOXAZINES” (FMC CORPORATION, priority 2022, published 2026).

Assay [1] relates to barnyardgrass. Description: Test A preemergence. It counts as in vivo, Echinochloa crusgalli. Conditions: 1000 g ai/ha, 0 to 100 scale (0 no effect, 100 complete control), 10 days. In short, it runs like this:
(§1)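 Weeds and crops in loam–sand blend were sprayed preemergence onto soil or postemergence at 2–10 cm (one- to two-leaf stage). Test chemicals were in a non-phytotoxic solvent with surfactant. After 10 days in the greenhouse, injury was rated visually against untreated controls on a 0 (no effect) to 100 (complete control) scale.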

Assay [2] deals with rice. Description: Test B flooded paddy test. Conditions: 250 g ai/ha, Flood, 13 days, 0 to 100 scale (0 no effect, 100 complete control). It counts as in vivo, Oryza sativa. A digest of the protocol:
(§2)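 Application into standing water (3 cm above soil) at the two-leaf stage; flood depth held constant. Evaluation: day 13, visual comparison with controls, 0 = no injury, 100 = complete control.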

The subject of assay [3] is foxtail, giant. Description: Test A postemergence. It counts as in vivo, Setaria faberi. Conditions: 1000 g ai/ha, Postemergence; 0 to 100 scale. A digest of the protocol:
as §1

Assay [4] concerns ducksalad. As to the kind of experiment: Test B flooded paddy test. It counts as in vivo, Heteranthera limosa. Conditions: 250 g ai/ha, Flood, 13 days, 0 to 100 scale (0 no effect, 100 complete control). A digest of the protocol: as §2
Assay [5] deals with blackgrass. As to the kind of experiment: Test A postemergence. It counts as in vivo, Alopecurus myosuroides. To be noted: 1000 g ai/ha, Postemergence; 0 to 100 scale. A digest of the protocol: as §1
Assay [6] has as its system foxtail, giant. As to the kind of experiment: Test A preemergence. Conditions: 1000 g ai/ha, 0 to 100 scale (0 no effect, 100 complete control), 10 days. It counts as in vivo, Setaria faberi. In short, it runs like this: as §1
In assay [7] the test system is wheat. As to the kind of experiment: Test A postemergence. It counts as in vivo, Triticum aestivum. Conditions: 1000 g ai/ha, Postemergence; 0 to 100 scale. In short, it runs like this:
as §1

Assay [8] concerns ryegrass, Italian. As to the kind of experiment: Test A postemergence. It counts as in vivo, Lolium multiflorum. Conditions: 1000 g ai/ha, Postemergence; 0 to 100 scale. In short, it runs like this:
as §1

Assay [9] relates to kochia. Description: Test A preemergence. It counts as in vivo, Bassia scoparia. To be noted: 1000 g ai/ha, 0 to 100 scale (0 no effect, 100 complete control), 10 days. A digest of the protocol:
as §1

The test system of assay [10] is ragweed. As to the kind of experiment: Test A postemergence. Conditions: 1000 g ai/ha, Postemergence; 0 to 100 scale. It counts as in vivo, Ambrosia artemisiifolia. A digest of the protocol: as §1
Assay [11] relates to ragweed. As to the kind of experiment: Test A preemergence. It counts as in vivo, Ambrosia artemisiifolia. Conditions: 1000 g ai/ha, 0 to 100 scale (0 no effect, 100 complete control), 10 days. A digest of the protocol: as §1
Assay [12] concerns Pigweed, Redroot. As to the kind of experiment: Test A preemergence. It counts as in vivo, Amaranthus retroflexus. To be noted: 1000 g ai/ha, 0 to 100 scale (0 no effect, 100 complete control), 10 days. In short, it runs like this:
as §1

For assay [13], the system named is barnyardgrass. Description: Test B flooded paddy test. It counts as in vivo, Echinochloa crus-galli. To be noted: 250 g ai/ha, Flood, 13 days, 0 to 100 scale (0 no effect, 100 complete control). A digest of the protocol:
as §2

The subject of assay [14] is barnyardgrass. Description: Test A postemergence. It counts as in vivo, Echinochloa crusgalli. To be noted: 1000 g ai/ha, Postemergence; 0 to 100 scale. A digest of the protocol: as §1
Assay [15] deals with Pigweed, Redroot. As to the kind of experiment: Test A postemergence. It counts as in vivo, Amaranthus retroflexus. Conditions: 1000 g ai/ha, Postemergence; 0 to 100 scale. From the text:
Seeds of plant species selected from barnyardgrass (Echinochloa crusgalli), blackgrass (Alopecurus myosuroides), corn (Zea mays), foxtail, giant (giant foxtail, Setaria faberi), goosegrass (Eleusine indica), kochia (Bassia scoparia), oat, wild (wild oat, Avena fatua), pigweed, palmer (palmer amaranth, palmer pigweed, Amaranthus palmeri), Pigweed, Redroot (redroot pigweed, Amaranthus retroflexus), ragweed (common ragweed, Ambrosia artemisiifolia), ryegrass, Italian (italian ryegrass, Lolium multiflorum), soybean (Glycine max), and wheat (Triticum aestivum) were planted into a blend of loam soil and sand and treated preemergence with a directed soil spray using test chemicals formulated in a non-phytotoxic solvent mixture which included a surfactant. At the same time, plants selected from these crops and weed species and also galium (catchweed bedstraw, Galium aparine) and horseweed (Erigeron canadensis) were planted in pots containing the same blend of loam soil and sand and treated with postemergence applications of test chemicals formulated in the same manner. Plants ranged in height from 2 to 10 cm and were in the one- to two-leaf stage for the postemergence treatment. Treated plants and untreated controls were maintained in a greenhouse for 10 days, after which time all treated plants were compared to untreated controls and visually evaluated for injury. Plant response ratings, summarized in Table A, are based on a 0 to 100 scale where 0 is no effect and 100 is complete control. A dash (-) response means no test result.

Assay [16] has as its system corn. As to the kind of experiment: Test A postemergence. It counts as in vivo, Zea mays. Conditions: 1000 g ai/ha, Postemergence; 0 to 100 scale. In short, it runs like this:
as §1

For assay [17], the system named is sedge, umbrella. Description: Test B flooded paddy test. To be noted: 250 g ai/ha, Flood, 13 days, 0 to 100 scale (0 no effect, 100 complete control). It counts as in vivo, Cyperus difformis. In short, it runs like this:
as §2

The subject of assay [18] is kochia. As to the kind of experiment: Test A postemergence. To be noted: 1000 g ai/ha, Postemergence; 0 to 100 scale. It counts as in vivo, Bassia scoparia. In short, it runs like this:
as §1

Assay [19] concerns ryegrass, Italian. As to the kind of experiment: Test A preemergence. It counts as in vivo, Lolium multiflorum. To be noted: 1000 g ai/ha, 0 to 100 scale (0 no effect, 100 complete control), 10 days. In short, it runs like this: as §1
Assay [20] has as its system galium. As to the kind of experiment: Test A postemergence. It counts as in vivo, Galium aparine. To be noted: 1000 g ai/ha, Postemergence; 0 to 100 scale. In short, it runs like this: as §1

Take `C#Cc1cccc2c1OC(C)CN2C(=O)c1cccc(-n2cncn2)c1` (stereo not drawn) [Compound 30]: the “Plant response rating, Barnyardgrass” value in assay [1] is on record as 30; in assay [13], 0; in [14], 20. The “Plant response rating, Rice” value in assay [2] is 0. Further, the entries for the “Plant response rating, Foxtail, Giant” value in [3] and in assay [6] were 40 and 80, respectively. For the same compound, in assay [4], the “Plant response rating, Ducksalad” value was 0. Further, the “Plant response rating, Blackgrass” value in assay [5] was 70. In assay [7], the “Plant response rating, Wheat” value was found to be 40. Besides, the “Plant response rating, Ryegrass, Italian” value was determined as 70 in assay [8] and 100 in assay [19]. The figures for the “Plant response rating, Kochia” value in assay [9] and in assay [18] were 20 and 10, respectively. For the same compound, the “Plant response rating, Ragweed” value in assay [10] and in assay [11] was 0 in each case. The figures for the “Plant response rating, Pigweed, Redroot” value in [12] and in assay [15] were 100 and 30, respectively. The “Plant response rating, Corn” value in [16] came to 10. In addition, in assay [17], the “Plant response rating, Sedge, Umbrella” value is 0.

For `Cc1cccc2c1OC(C)CN2C(=O)c1cccc(-n2cncn2)c1` (stereo not drawn) [Compound 21], the “Plant response rating, Barnyardgrass” value was 100 in assay [1], 0 in assay [13] and 90 in [14]. Further, the “Plant response rating, Rice” value in assay [2] turned out to be 0. Moreover, the “Plant response rating, Foxtail, Giant” value in assay [3] is reported as 90; in assay [6] it was 100. The “Plant response rating, Ducksalad” value in assay [4] is listed as 65. Besides, in assay [5], the “Plant response rating, Blackgrass” value is 80. Besides, in assay [7], the “Plant response rating, Wheat” value is recorded as 70. The figures for the “Plant response rating, Ryegrass, Italian” value in assay [8] and in assay [19] were 80 and 100, respectively. The entries for the “Plant response rating, Kochia” value in assay [9] and in assay [18] were 70 and 40, respectively. Further, the “Plant response rating, Ragweed” value in [10] turned out to be 40; in [11], 70. Besides, the “Plant response rating, Pigweed, Redroot” value was determined as 100 in assay [12] and 60 in assay [15]. For the same compound, in [20], the “Plant response rating, Galium” value is 80. Moreover, in assay [16], the “Plant response rating, Corn” value was determined as 90. In assay [17], the “Plant response rating, Sedge, Umbrella” value amounted to 35.

Regarding `CC1CN(C(=O)c2ccnc(-n3cncn3)c2)c2ccccc2O1` (stereo not drawn) [Compound 19], the “Plant response rating, Barnyardgrass” value came to 90 in [1], 0 in [13] and 80 in assay [14]. For the same compound, the “Plant response rating, Rice” value in [2] is 0. The entries for the “Plant response rating, Foxtail, Giant” value in assay [3] and in assay [6] were 60 and 100, respectively. Also, the “Plant response rating, Ducksalad” value in assay [4] stood at 0. Moreover, the “Plant response rating, Blackgrass” value in [5] was found to be 70. Also, the “Plant response rating, Wheat” value in [7] came out at 70. Further, the “Plant response rating, Ryegrass, Italian” value in assay [8] is recorded as 60; in assay [19], 80. Also, the entries for the “Plant response rating, Kochia” value in assay [9] and in assay [18] were 60 and 30, respectively. For the same compound, the “Plant response rating, Ragweed” value is 0 in assay [10] and 80 in assay [11]. The “Plant response rating, Pigweed, Redroot” value in assay [12] is 0; in assay [15] it was 40. Moreover, the “Plant response rating, Galium” value in assay [20] is 90. The “Plant response rating, Corn” value in assay [16] is 50. Also, the “Plant response rating, Sedge, Umbrella” value in assay [17] was determined as 0.

`C[C@H]1CN(C(=O)c2cccc(-n3cnnn3)c2)c2cccc(Cl)c2O1` [Compound 115]: the entries for the “Plant response rating, Barnyardgrass” value in [1], in assay [13] and in [14] were 70, 0 and 50, respectively. Also, the “Plant response rating, Rice” value in assay [2] was determined as 0. The “Plant response rating, Foxtail, Giant” value turned out to be 40 in [3] and 90 in assay [6]. In addition, the “Plant response rating, Ducksalad” value in [4] amounted to 0. Further, in assay [5], the “Plant response rating, Blackgrass” value was 50. Further, in [7], the “Plant response rating, Wheat” value came to 50. Also, the “Plant response rating, Ryegrass, Italian” value in [8] came out at 60; in [19], 90. The figures for the “Plant response rating, Kochia” value in assay [9] and in [18] were 40 and 0, respectively. Also, the “Plant response rating, Ragweed” value in assay [10] was 0; in assay [11] it was 30. The “Plant response rating, Pigweed, Redroot” value in [12] amounted to 80; in assay [15], 30. In assay [20], the “Plant response rating, Galium” value turned out to be 70. Moreover, the “Plant response rating, Corn” value in [16] was found to be 40. In [17], the “Plant response rating, Sedge, Umbrella” value worked out at 0.

Turning to `CC1CN(C(=O)c2cccc(-n3cncn3)c2)c2cccc(Br)c2O1` (stereo not drawn) [Compound 25], the figures for the “Plant response rating, Barnyardgrass” value in assay [1], in assay [13] and in [14] were 90, 0 and 50, respectively. Also, the “Plant response rating, Rice” value in assay [2] stood at 0. Further, the “Plant response rating, Foxtail, Giant” value is given as 90 in assay [3] and 100 in [6]. In addition, in [4], the “Plant response rating, Ducksalad” value is recorded as 35. Besides, in [5], the “Plant response rating, Blackgrass” value is 90. Besides, in assay [7], the “Plant response rating, Wheat” value was determined as 70. Also, the “Plant response rating, Ryegrass, Italian” value in assay [8] amounted to 90; in assay [19], 100. Besides, the “Plant response rating, Kochia” value in assay [9] amounted to 30; in assay [18] it was 50. The “Plant response rating, Ragweed” value in assay [10] and in assay [11] was 0 each time. For the same compound, the “Plant response rating, Pigweed, Redroot” value in assay [12] is listed as 100; in assay [15], 40. The “Plant response rating, Corn” value in [16] worked out at 70. Besides, the “Plant response rating, Sedge, Umbrella” value in [17] is 0.

Consider `Cc1cccc2c1OC(C)CN2C(=O)c1ccc(C#N)c(-n2cncn2)c1` (stereo not drawn) [Compound 29], for which the “Plant response rating, Barnyardgrass” value was found to be 90 in assay [1], 0 in assay [13] and 70 in assay [14]. For the same compound, the “Plant response rating, Rice” value in assay [2] is reported as 0. Also, the figures for the “Plant response rating, Foxtail, Giant” value in [3] and in assay [6] were 90 and 100, respectively. The “Plant response rating, Ducksalad” value in [4] is given as 0. The “Plant response rating, Blackgrass” value in [5] is 70. Further, the “Plant response rating, Wheat” value in assay [7] came out at 60. The “Plant response rating, Ryegrass, Italian” value is reported as 50 in assay [8] and 90 in assay [19]. Also, the “Plant response rating, Kochia” value in assay [9] turned out to be 20; in assay [18] it was 10. The “Plant response rating, Ragweed” value in assay [10] and in assay [11] was 0 throughout. Further, the entries for the “Plant response rating, Pigweed, Redroot” value in assay [12] and in assay [15] were 60 and 50, respectively. The “Plant response rating, Corn” value in assay [16] was 80. The “Plant response rating, Sedge, Umbrella” value in assay [17] worked out at 0.
